Read-outs that look alike come from different tables or passages of the source.

In series [1] the test system is V. harveyi reporter strain BB170 (Sensor 1-, Sensor 2+). The format is cell-based, Vibrio harveyi. As for the experimental part: Cell-free culture fluids from E. coli, S. typhimurium and V. harveyi strains were tested for the presence of signaling substances that could induce luminescence in the V. harveyi reporter strain BB170 or BB886. […] The microtiter dishes were shaken in a rotary shaker at 175 rpm at 30° C.
The cell density was measured by diluting the same aliquots of cells used for measuring luminescence, spreading the dilutions onto solid LM medium, incubating the plates overnight at 30° C., and counting the resulting colonies the following day. […] Cell-free culture supernatants from V. harveyi or S. typhimurium strains were added to a final concentration of 10% (v/v) at the time of the first measurement. In control experiments, 10% (v/v) of AB medium, LB medium or LB medium containing 0.5% glucose was added instead of cell-free culture fluids.

The subject of series [2] is V. harveyi luxN, luxS double mutant reporter strain. Kind of series: V. harveyi luxN, luxS double mutant reporter strain luminescence assay. It is filed as cell-based, Vibrio harveyi. The following applies: AI-1 from MM30 and AI-2 from BB152 culture fluids. As to the method: Verification that the luxN, luxS Double Mutant Responds to AI-2. […] This was verified in a luminescence assay for response to V. harveyi AI-1 and AI-2. V. harveyi strain MM30 (luxS::Tn5) which is phenotypically AI-1^+, AI-2^−, and V. harveyi strain BB152 (luxM::Tn5) which is phenotypically AI-1^−, AI-2^+ were used as the sources of AI-1 and AI-2 respectively. The AI-1 and AI-2 present in culture fluids of these strains was tested for stimulation of light production of the V. harveyi luxN, luxS double mutant reporter strain. In this assay, autoinducer preparations from MM30, BB152 or sterile medium controls were added to the wells of microtiter plates, followed by the addition of the V. harveyi reporter strain. The resulting light production was monitored using a liquid scintillation counter in the chemiluminescence mode. Maximal stimulation of light production in the V. harveyi luxN, luxS reporter strain was compared to that produced by the Sensor 1^+, Sensor 2^− V. harveyi strain BB886 and the Sensor 1^−, Sensor 2^+ V. harveyi strain BB170. These two V. harveyi strains are routinely used in this assay as reporters of AI-1 and AI-2 activity respectively.

Series [3] concerns V. harveyi reporter strain BB886 (Sensor 1+, Sensor 2-). The experiment in a line: V. harveyi BB886 luminescence bioassay (AI-1 / Signaling System 1). The following applies: non self-stimulating sensor-1+, sensor-2- mutant (BB886). It is filed as cell-based, Vibrio harveyi. As to the method:
Assay for production of signaling compounds. Cell-free culture fluids from E. coli, S. typhimurium and V. harveyi strains were tested for the presence of signaling substances that could induce luminescence in the V. harveyi reporter strain BB170 or BB886. In the assays, 10 1 of cell-free culture fluids from E. coli AB1157, E. coli DH5, and S. typhimurium LT2 strains grown and harvested as described above were added to 96-well microtiter dishes. The V. harveyi reporter strain BB170 or BB886 was grown for 16 h at 30° C. with aeration in AB medium, diluted 1:5000 into fresh AB medium, and 90 1 of the diluted cells were added to the wells containing the E. coli and S. typhimurium cell-free culture fluids. Positive control wells contained 10 1 of cell-free culture fluid from strain V. harveyi BB152 (Autoinducer-1^−, Autoinducer-2^+) or V. harveyi BB 120 (Autoinducer-1^+, Autoinducer-2^+). Negative control wells contained 10 1 of sterile growth medium. […] Every hour, light production was measured using a Wallac Model 1450 Microbeta Plus liquid scintillation counter in the chemiluminescence mode. The V. harveyi cell density was measured by diluting the same aliquots of cells used for measuring luminescence, spreading the dilutions onto solid LM medium (Bassler et al., 1993, supra), incubating the plates overnight at 30C., and counting the resulting colonies the following day. […]

For series [4], the system named is rck::MudJ fusion in S. typhimurium (sdiA+ and sdiA-). Kind of series: SdiA regulated rck::MudJ fusion, galactosidase. It is filed as cell-based. The following applies: addition of AI-2 from E. coli or S. typhimurium, 2 h. As for the experimental part: For ftsQ regulation in E. coli, the plasmids pMS207 and pMS209 were transformed into E. coli strain MC4100 (Silhavy et al., 1984, supra), and the transformants were grown overnight in LB containing 100 mg/L ampicillin at 30° C. with aeration. For rck regulation, S. typhimurium strains BA1105 (rck::MudJ) and BA1305 (rck::MudJ sdiA) were grown overnight in LB containing 100 mg/L kanamycin at 30° C. with aeration. The overnight cultures were diluted 20-fold into fresh medium and grown for an additional 4.5 h. At this time, each culture was divided into five identical aliquots and 10% (v/v) of one of the following was added to each aliquot: LB, 0.4 M NaCl, […] osmotic shock fluids from S. typhimurium LT2, E. coli 0157 or E. coli strain DH5 (negative control). The osmotic shock fluids were prepared as described above, following pre-growth of the S. typhimurium LT2 and E. coli in LB containing 0.5% glucose for 6 h. The cell suspensions were incubated at 30° C. for 2 h, after which standard-galactosidase reactions were performed on the samples (Miller, A Short Course in Bacterial Genetics, Cold Spring Harbor Laboratory Press, 1992).

A short description of series [5]: Stability of the signaling activity (acid, base, heat, storage). The format is physicochemical.
Series [6] deals with ftsQ1p2p-lacZ fusion in E. coli MC4100/pMS207. The experiment in a line: SdiA regulated ftsQ1p2p-lacZ reporter, galactosidase. The format is cell-based. The following applies: 10% (v/v) 0.4 M NaCl osmotic shock fluids containing AI-2 activity, 2 h. An excerpt: Analysis of the effect of autoinducer on SdiA regulated gene expression. A sequence that includes the ftsQ1p and ftsQ2p promoters (Wang et al., 1991, supra) was amplified from E. coli MG1655 chromosomal DNA using the following primers: ftsQ1p, 5′-[…]-3′ (SEQ ID NO: 19); ftsQ2p, 5′-[…]-3′ (SEQ ID NO: 20). The amplified product contained both the ftsQ promoters and the first 14 codons of the ftsQ gene flanked by BamHI and Bg1II sites. The ftsQ1p2p PCR product was cloned into the BamHI site of vector pMLB 1034 (Silhavy et al., Experiments with Gene Fusions, Cold Spring Harbor Press, 1984) to generate a lacZ fusion that contained the promoters, ribosome binding site, and initiation codon of ftsQ. A correctly oriented clone, pMS207, and a clone containing the ftsQ1p2p insert in the opposite orientation, pMS209, were chosen for further analysis. Both inserts were sequenced to ensure that no errors were introduced during the PCR reaction.
For ftsQ regulation in E. coli, the plasmids pMS207 and pMS209 were transformed into E. coli strain MC4100 (Silhavy et al., 1984, supra), and the transformants were grown overnight in LB containing 100 mg/L ampicillin at 30° C. with aeration. For rck regulation, S. typhimurium strains BA1105 (rck::MudJ) and BA1305 (rck::MudJ sdiA) were grown overnight in LB containing 100 mg/L kanamycin at 30° C. with aeration. […]

Consider `O=C(O)CCC(=O)C(=O)O` [-ketoglutarate], for which the “activity of candidates for the signal in inducing luminescence” value (“activity of candidates for the signal” for short) in series [1] was “None of these compounds has activity”.

Turning to `C[C@@H](O)CC(=O)N[C@H]1CCOC1=O` [AI-1, N-(3-hydroxybutanoyl)-L-homoserine lactone, reference compound], in series [2], the “light production in response to exogenous autoinducer” value is on record as “not”. In series [3], the “lowest concentration the assay was sensitive to” value is 100 nM.

For the compound `CC(=O)C(=O)C(O)CO` (stereo not drawn) [AI-2, 4,5-dihydroxy-2,3-pentanedione], the “change in galactosidase production of rck::MudJ” value in series [4] is given as “No change”. Moreover, the “light production in response to exogenous autoinducer” value in series [2] was “stimulated to produce light”. The “acid and base stability of the activity” value in series [5] is “acid stable and base labile”; in series [5] (listed as signaling activity) it was “acid stabile and base labile”; in series [5] (listed as signaling compound), “acid stable and base labile”. The “heat resistance of the activity” value in series [5] is “heat resistant to about 80 but not 100 °C”; in series [5] (listed as signaling activity), “heat resistant to 80 but not 100 °C”; in series [5] (listed as signaling compound), “heat resistant to 80 °C but not 100 °C”. Moreover, the “stimulation in light production by AI-2 produced in vitro” value in series [1] (dialyzed LuxS- cell extract + SAM + LuxS protein, 60 min, material with MW<5000) is listed as “over 500 fold”. The “change of galactosidase activity of ftsQ1p2p-lacZ fusion” value in series [6] is “did not change”.

As to `CC(=O)O` [acetate], in series [1], the “activity of candidates for the signal” value is listed as “None of these compounds has activity”.

With `N[C@H]1CCOC1=O` [homoserine lactone], the “activity of candidates for the signal” value in series [1] was “None of these compounds has activity”.

The values are drawn from patent US7326542B2, “Compositions and methods for regulating bacterial pathogenesis” (priority 1998, dated 2008).
